Source: patent US20200354331A1, “ICARIIN DERIVATIVES” (H. LEE MOFFITT CANCER CENTER AND RESEARCH INSTITUTE, INC., priority 2014, published 2020)
Read-outs that look alike come from different tables or passages of the source.

Legend:
Gr-1+CD11b+ MDSCs = assay: Circulating Gr-1+CD11b+ MDSC in spleens of 4T1 tumor-bearing mice (flow cytometry); assay type: in vivo, BALB/c mice; conditions: 100 mg/kg i.p. three times weekly, vehicle 50.28%
Description: FIG. 1 depicts the effects of ICA or ICT on the differentiation of MDSC. MDSC were isolated from spleens of 4T1 tumor-bearing mice. The maturation markers indicated were used to evaluate the differentiation and accumulation of MDSC in tumor bearing mice. Cell phenotype was evaluated by flow cytometry. One of the most striking features of ICA and ICT is their anti-tumorigenic ability in vivo. Seven days post-infection 1 cm diameter 4T1 tumors from 5 mice were established in BALB/c mice. Mice were treated with 100 mg/kg of ICA, ICT or vehicle (i.p.) three times weekly and tumor size (mean and SD) was monitored every 2 to 3 days. The percentages of double-positive Gr-1+CD11b′ MDSCs were determined for spleens of five mice per group. Cell phenotype was evaluated by flow cytometry. […] ICA or ICT on the differentiation of MDSC.

4T1 tumors = assay: 4T1 tumor growth in vivo; design: species or system BALB/c mice; conditions: 100 mg/kg i.p. three times weekly
Description: One of the most striking features of ICA and ICT is their anti-tumorigenic ability in vivo. Seven days post-infection 1 cm diameter 4T1 tumors from 5 mice were established in BALB/c mice. Mice were treated with 100 mg/kg of ICA, ICT or vehicle (i.p.) three times weekly and tumor size (mean and SD) was monitored every 2 to 3 days. The percentages of double-positive Gr-1+CD11b′ MDSCs were determined for spleens of five mice per group. Cell phenotype was evaluated by flow cytometry. […] ICA or ICT on the differentiation of MDSC.

Bone marrow = assay: IC50 / toxicity in cells; assay type: cell-based; conditions: Mus musculus
Description: (§1) Specifically, BMNCs from three healthy donors were treated with different concentrations of ICA or ICT for 48 hours after which colony formation was assessed using MethoCult H4434 complete medium with cytokines. The mixture was placed in 35-mm culture dishes (1×10^5 cells/each dish) and incubated at 37° C. in 5% CO2 for approximately 7-14 days. After incubation, colonies of CFU-E, BFU-E and CFU-GM were indentified and counted using an inverted light microscope. […] Although, these cells were obtained from spleens, it was also found ICA/ICT has a similar effect on MDSCs isolated from tumor tissue. Here, Gr1^+ cells were isolated from tumors of 4T1 tumor-bearing mice. MDSCs were treated with 20 μM of ICA, ICT, or DMSO for 48 h. Bars represent the relative percentage of MDSC as compared to DMSO treated cells measured by flow cytometry (FIG. 3A). The production of ROS (FIG. 3B) and NO (FIG. 3C) activity of purified MDSC from tumor tissue was also measured.

U937 = assay: IC50 / toxicity in cells; assay type: cell-based; conditions: Homo sapiens, U-937
MDS BMNCs = assay: Colony formation (CFU-GM, BFU-E) in MethoCult H4434; assay type: cell-based; conditions: 20 uM for 48 h, 14 days culture
Description: Bone marrow mononuclear cells (BMCs) from MDS patients were treated with 20 uM ICT for 48 h, and then seeded into MethoCult H4434 complete medium, the mixture is placed in 35-mm culture dishes (1×10^5 cells/each dish) and incubated at 37° C. in 5% CO2 for 14 days. After incubation, colonies of CFU-GM and BFU-E were identified and counted using an inverted light microscope, as shown in FIGS. 21A and 21B respectively. Each point represents the mean results of […], and each experimental point represents duplicate plates. Results are expressed as mean value±SD.

SIGLEC3 = assay: SIGLEC3/CD33 expression on PBMC (Q-PCR, flow cytometry); assay type: cell-based, human; conditions: healthy PBMC, 48 hours; for SIGLEC3 mRNA and protein expression: 1 μM (Q-PCR)
Description: FIG. 4 depicts the down-regulation of the RNA expression of SIGLEC3 on PBMCs due to ICA and ICT. Healthy PBMC were cultured for 48 hours with 1 μM of DMSO, ICA or ICT and the expression of SIGLEC3 was measured by Q-PCR and analyzed by the AACt method. Error bars indicate SEM.
FIG. 5 depicts the effect of ICT on the expression of SIGLEC3 and SIGLEC5 on PBMC. PBMC from healthy donors were treated for 48 hours with DMSO or ICT and stained extra-cellularly with SIGLEC3-PE and SIGLEC5/14-APC antibodies (BD biosciences).
SIGLEC3 is highly expressed in MDSCs isolated from patients with AML (FIG. 6a). […] Specifically, healthy PBMC were cultured for 48 hours with 1 μM of DMSO, ICA or ICT and the expression of SIGLEC3 was measured by Q-PCR and analyzed by the MCt method. Also, PBMC from healthy donors were treated for 48 hours with DMSO or ICT and stained extra-cellularly with SIGLEC3-PE and SIGLEC5/14-APC antibodies (BD biosciences). S100A9 can ligate with SIGLEC3, denoting the presence of an uncharacterized pathway that could be linked to the identification of specific strategies targeting the regulation of MDSC activation.
Healthy PBMC were cultured for 48 hours with […] of the PDE5 inhibitor ICT and the expression of SIGLEC3 measured by the DDCt method. The experimental control is PBMC treated with DMSO and the internal control was GAPDH. Error bars indicate the SEM of three separate donors/experiments.

PP2A bound to PDE5 = target: T1, PP2A bound to PDE5 (Homo sapiens, UniProt O76074); assay: Co-immunoprecipitation of PDE5 with PP2A in PBMC; assay type: cell-based; conditions: 48 hours
T1 construct: Cells were then lysed and PDE5 was immunoprecipitated following a Western Blot with anti-PP2A; endogenous in cells; host or cells: human PBMC
Description: Human PBMC were cultured for 48 hours with media, DMSO or increasing doses of ICT (1, 5, 10, 20 μM respectively). Cells were then lysed and PDE5 was immunoprecipitated following a Western Blot with anti-PP2A. Coomasie blue staining of the membrane is shown as loading control.
To understand if there is a link correlating S100A9/SIGLEC3 and PDE5 activation, SJCRH30 cells were transfected with either vector, S100A9 or SIGLEC 3. Seventy two hours post-transfection cells were lysed and assessed by Western Blot for either PDE5 or its phosphorylated counterpart.

[1] = tested on: MDSCs isolated from tumors of 4T1 tumor-bearing mice; assay: ROS and NO production of MDSC isolated from tumors; assay type: cell-based; conditions: MDSCs from tissue of tumor-bearing mice, 20 μM, 48 h
Description: FIGS. 3A-3C depicts the effect of ICA and ICT on expansion of MDSCs isolated from tumor and their ROS and NO production. Gr1^+ cells were isolated from tumors of 4T1 tumor-bearing mice. (FIG. 3A) MDSCs were treated with 20 μM of ICA, ICT, or DMSO for 48 h. Bars represent the relative percentage of MDSC as compared to DMSO treated cells measured by flow cytometry. (FIG. 3B) Production of ROS and (FIG. 3C) NO activity of purified MDSC from tumor tissue.
as §1, with “MDSCs were treated with 20 μM of ICA, ICT, or DMSO for 48 h.” left out

`COc1ccc(-c2oc3c(CC=C(C)C)c(O[C@@H]4O[C@H](CO)[C@@H](O)[C@H](O)[C@H]4O)cc(O)c3c(=O)c2O[C@@H]2O[C@@H](C)[C@H](O)[C@@H](O)[C@H]2O)cc1` [ICA, Icariin] was tested, and the “percent of circulating MDSC” value (Gr-1+CD11b+ MDSCs) was 33.35%, the “tumor growth in vivo” value (4T1 tumors) was “inhibit tumor growth in vivo” and the IC50 (Bone marrow; BMMC) was > 100 µM. The IC50 (U937) was > 100 µM, the “hematopoiesis of MDS BMNCs (CFU-GM, BFU-E colonies)” value (MDS BMNCs) was “increase the hematopoiesis of MDS BMNCs” and the “SIGLEC3 mRNA and protein expression” value (SIGLEC3) was “down-regulating SIGLEC3 at both the mRNA and protein expression levels”. The “association of PP2A with PDE5” value (PP2A bound to PDE5) was “decreased” and the “NO and ROS production by MDSCs” value [1] was “inhibit NO and ROS production”.
With `COc1ccc(-c2oc3c(CCC(C)(C)O)c(O)cc(O)c3c(=O)c2O)cc1` [ICT, 3,5,7-trihydroxy-4′-methoxy-8-(3-hydroxy-3-methylbutyl)-flavone] the “percent of circulating MDSC” value (Gr-1+CD11b+ MDSCs) was 26.97%, the “tumor growth in vivo” value (4T1 tumors) was “inhibit tumor growth in vivo” and the IC50 (Bone marrow; Bone marrow (bone marrow mononuclear cells, BMMC), read-out: IC50) was > 100 µM. The IC50 (U937; U937, read-out: IC50) was > 100 µM, the “hematopoiesis of MDS BMNCs (CFU-GM, BFU-E colonies)” value (MDS BMNCs) was “increase the hematopoiesis of MDS BMNCs” and the “SIGLEC3 mRNA and protein expression” value (SIGLEC3) was “down-regulating SIGLEC3 at both the mRNA and protein expression levels”. For the same molecule, the “expression of CD33 on PBMC” value (SIGLEC3; 20 μM) was “down-regulate the expression of CD33 on PBMC”, the “association of PP2A with PDE5” value (PP2A bound to PDE5) was “decreased” and the “NO and ROS production by MDSCs” value [1] was “inhibit NO and ROS production”.
